Source: patent US8530386B2, “Herbicidal compositions for tolerant or resistant sugar beet crops” (Bayer Intellectual Property GmbH, priority 1998, dated 2013)
Where a name gives a salt, the structure may show the parent alone.

Key:
Type in all cases: in vivo
[1] = test system: Galium aparine; experiment: Herbicidal action, field trial (Table 7); conditions: application in the 4-5-leaf stage, scoring 26 days after application
Experimental: (§1) Transgenic sugar beet plants with resistance to one or more herbicides (A) were grown together with typical weed plants in the open in 2×5 m plots under natural field conditions; alternatively, the weed population established naturally while the sugar beet plants grew. Treatment with the compositions according to the invention and, for control purposes, with separate application of the active ingredients of the components alone, was carried out under standard conditions with a plot sprayer at an application rate of 200-300 liters of water per hectare in parallel trials in accordance with the scheme of Table 1, i.e. pre-sowing/pre-emergence, post-sowing/pre-emergence or post-emergence at the early, medium or late stage.
(§2) […] Damage and development of all aerial plant organs was recorded. The scoring was done using a percentage scale (100% activity=all plants dead, 50% activity=50% of the plants and green plant organs dead, 0% activity=no discernible effect=like control plot). The score values of in each case 4 plots were averaged.
(§3) In contrast, the sugar beet plants suffered no, or only negligible, damage as a consequence of the treatment with the herbicidal compositions.

[2] = test system: transgenic sugar beet; experiment: Damage to transgenic sugar beet, field trial (Table 5); conditions: application in the 3-5-leaf stage
Experimental: as §1
(§4) At 2, 4, 6 and 8 week intervals after application, the herbicidal activity of the active ingredients or active ingredient mixtures were scored visually by comparing the treated plots with untreated control plots. Damage and development of all aerial plant organs was recorded. The scoring was done using a percentage scale (100% activity=all plants dead, 50% activity=50% of the plants and green plant organs dead, 0% activity=no discernible effect=like control plot). The score values of in each case 4 plots were averaged.
as §3

[3] = test system: transgenic sugar beet; experiment: Damage to transgenic sugar beet, greenhouse experiment (Table 3); set-up: scale not given here; conditions: application in the 4-5-leaf stage
[4] = test system: transgenic sugar beet; experiment: Damage to transgenic sugar beet, field trial (Table 4); conditions: application in 3-leaf stage
Experimental: as §1, §4, §3

[5] = test system: Galium aparine; experiment: Herbicidal action, field trial (Table 6); conditions: application in the 3-5-leaf stage, scoring 4 weeks after application
Experimental: as §1, §4, §3

[6] = test system: transgenic sugar beet; experiment: Damage to transgenic sugar beet - field trial (Table 2); conditions: application in 2-4-leaf stage
Experimental: as §1, §4, §3

[7] = test system: Galium aparine; experiment: Herbicidal action in sugar beet crop, greenhouse experiment (Table 3); conditions: application in the 4-5-leaf stage, scoring 3 weeks after application
Description: Seeds or rhizomes of monocotyledonous and dicotyledonous weeds are placed in sandy loam soil in cardboard pots, covered with soil and grown in the greenhouse under good growth conditions. […] The compositions according to the invention, which are formulated as wettable powders or as emulsion concentrates, are sprayed at various dosages onto the green plant organs at an application rate of 600 to 800 l of water per ha (converted). After the experimental plants have remained in the greenhouse for approx. 3 to 4 weeks under optimal growth conditions, the effect of the preparations is scored visually in comparison with untreated controls. The compositions according to the invention also have a good herbicidal activity against a broad spectrum of economically important grass weeds and broad-leaved weeds when applied post-emergence.
In this context, activities of the combinations according to the invention are frequently observed which exceed the formal total of the activities when the herbicides are applied individually. The observed values show, at suitably low dosages, an activity of the combinations which exceed Colby's expected values (cf. scoring in Example 1).

[8] = test system: Amaranthus retroflexus; experiment: Herbicidal action, field trial, sequential treatment (Table 8); conditions: dose 200 g A.S./ha; post-emergence at the 2-3-leaf stage; scoring 22 days after application
Experimental: as §1, §2, §3

[9] = test system: Setaria viridis; experiment: as above; conditions: dose 200 g A.S./ha; post-emergence at the 2-3-leaf stage; scoring 22 days after application
Experimental: as §1, §2, §3

[10] = test system: Avena fatua; experiment: Herbicidal action and selectivity in sugar beet crop, field trial (Table 5); conditions: application in the 3-5-leaf stage, scoring 4 weeks after application
Experimental: as §1, §4, §3

CC(C)N.O=C(O)CNCP(=O)(O)O [(A2.2), monoisopropylammonium salt of glyphosate]
Herbicidal action in % against Galium aparine ([1]; dose 125 g A.S./ha): 10% | Herbicidal action in % against Galium aparine ([1]; dose 250 g A.S./ha): 40% | Herbicidal action in % against Galium aparine ([1]; dose 500 g A.S./ha): 60% | Herbicidal action in % against Galium aparine ([1]; dose 1000 g A.S./ha): 85%

CCOC(=O)C(C)Oc1ccc(Oc2nc3ccc(Cl)cc3o2)cc1 (racemic) [(B3.2), fenoxaprop-ethyl (rac.)]
Damage to transgenic sugar beet ([2]; dose 15 g A.S./ha): 0 | Damage to transgenic sugar beet ([2]; dose 30 g A.S./ha): 0 | Damage to transgenic sugar beet ([2]; dose 60 g A.S./ha): 0

Cc1nnc(-c2ccccc2)c(=O)n1N [(B1.4), 4-amino-4,5-dihydro-3-methyl-6-phenyl-1,2,4-triazin-5-one]
Damage to transgenic sugar beet ([3]; dose 750 g A.S./ha): 0 | Damage to transgenic sugar beet ([3]; dose 1500 g A.S./ha): 0 | Damage to transgenic sugar beet ([3]; dose 3000 g A.S./ha): 0

CCC/C(=N\OCC)C1=C(O)CC(CC(C)SCC)CC1=O (centres unmarked) [(B4.1), (E,Z)-2-(1-ethoxyiminobutyl)-5-[2-(ethylthio)propyl]-3-hydroxycyclohex-2-enone]
Damage to transgenic sugar beet ([4]; dose 105 g A.S./ha): 0 | Damage to transgenic sugar beet ([4]; dose 210 g A.S./ha): 0 | Damage to transgenic sugar beet ([4]; dose 315 g A.S./ha): 0

CP(=O)(O)CCC(N)C(=O)O (centres unmarked) [(A1.2), glufosinate monoammonium salt]
Damage to transgenic sugar beet ([3]; dose 125 g A.S./ha): 0 | Damage to transgenic sugar beet ([3]; dose 250 g A.S./ha): 0 | Damage to transgenic sugar beet ([3]; dose 500 g A.S./ha): 0 | Damage to transgenic sugar beet ([2]; dose 150 g A.S./ha): 0 | Damage to transgenic sugar beet ([2]; dose 300 g A.S./ha): 0 | Damage to transgenic sugar beet ([2]; dose 600 g A.S./ha): 0 | Herbicidal action in % against Galium aparine ([5]; dose 250 g A.S./ha): 20% | Herbicidal action in % against Galium aparine ([5]; dose 300 g A.S./ha): 40% | Herbicidal action in % against Galium aparine ([5]; dose 600 g A.S./ha): 85% | Damage to transgenic sugar beet ([6]; dose 37.5 g A.S./ha): 0 | Damage to transgenic sugar beet ([6]; dose 75 g A.S./ha): 0 | Damage to transgenic sugar beet ([6]; dose 150 g A.S./ha): 0 | Damage to transgenic sugar beet ([6]; dose 300 g A.S./ha): 0 | Herbicidal action in % against Galium aparine ([7]; dose 125 g A.S./ha): 45% | Herbicidal action in % against Galium aparine ([7]; dose 250 g A.S./ha): 60% | Herbicidal action in % against Galium aparine ([7]; dose 500 g A.S./ha): 85% | Damage to transgenic sugar beet ([4]; dose 0 g A.S./ha): 0 | Damage to transgenic sugar beet ([4]; dose 10 g A.S./ha): 0 | Damage to transgenic sugar beet ([4]; dose 65 g A.S./ha): 0 | Herbicidal action in % against Amaranthus retroflexus [8]: 55% | Herbicidal action in % against Setaria viridis [9]: 60%

COC(=O)[C@@H](C)Oc1ccc(Oc2ncc(C(F)(F)F)cc2Cl)cc1 [(B3.4), haloxyfop-P-methyl]
Herbicidal action in % against Avena fatua ([10]; dose 15 g A.S./ha): 20% | Herbicidal action in % against Avena fatua ([10]; dose 30 g A.S./ha): 63% | Damage to transgenic sugar beet ([2]; dose 15 g A.S./ha): 0 | Damage to transgenic sugar beet ([2]; dose 30 g A.S./ha): 0

COC(=O)Nc1cccc(NC(=O)Oc2cccc(C)c2)c1 [(B2.2), 3-methylphenyl N-[3-(methoxycarbonylamino)phenyl]carbamate]
Damage to transgenic sugar beet ([3]; dose 500 g A.S./ha): 0 | Damage to transgenic sugar beet ([3]; dose 1000 g A.S./ha): 0 | Damage to transgenic sugar beet ([3]; dose 2000 g A.S./ha): 0 | Herbicidal action in % against Galium aparine ([1]; dose 500 g A.S./ha): 20% | Herbicidal action in % against Galium aparine ([1]; dose 1000 g A.S./ha): 30% | Herbicidal action in % against Galium aparine ([1]; dose 2000 g A.S./ha): 30% | Herbicidal action in % against Galium aparine ([7]; dose 500 g A.S./ha): 20% | Herbicidal action in % against Galium aparine ([7]; dose 1000 g A.S./ha): 30% | Herbicidal action in % against Galium aparine ([7]; dose 2000 g A.S./ha): 30%

CCCC(=NOCC)C1=C(O)CC(C2CCCSC2)CC1=O (centres unmarked) [(B4.2), 2-(1-ethoxyiminobuytl)-3-hydroxy-5-thian-3-ylcyclohex-2-enone]
Damage to transgenic sugar beet ([4]; dose 62.5 g A.S./ha): 0 | Damage to transgenic sugar beet ([4]; dose 125 g A.S./ha): 0 | Damage to transgenic sugar beet ([4]; dose 250 g A.S./ha): 0

O=C(O)c1nc(Cl)ccc1Cl [(B2.4), 3,6-dichloropyridine-2-carboxylic acid]
Damage to transgenic sugar beet ([3]; dose 50 g A.S./ha): 0 | Damage to transgenic sugar beet ([3]; dose 100 g A.S./ha): 0 | Damage to transgenic sugar beet ([3]; dose 200 g A.S./ha): 0
